This note sets out measurements from US4264597A, “Cephalosporin analogues and processes for the preparation thereof” (priority 1978, dated 1981).

In brackets after ≈: the same amount, converted by molar mass.

The test system of this test is T. asteroides. Nature of the test: In vitro antimicrobial activity, two-fold agar-plate dilution method (MIC). The test is classed as cell-based. The conditions noted are these: overnight culture in Trypticase-soy broth (10^4-5 viable spores per ml) streaked on HI-agar, incubation at 37° C. for 20 hours. On the procedure:
In vitro antibacterial activity was determined by the two-fold agar-plate dilution method as described below. One loopful of an overnight culture of each test strain in Trypticase-soy broth (10^4-5 viable spores per ml) was streaked on heart infusion sugar (HI-agar) containing graded concentrations of antibiotics, and the minimal inhibitory concentration (MIC) was expressed in terms of μg/ml after incubation at 37° C. for 20 hours.

The molecule `O=C(COc1ccccc1)N[C@@H]1C(=O)N2C(C(=O)OCc3ccccc3)=CC(=O)O[C@H]12` [(2)] came in with an MIC of 200 µg/mL (≈ 473 µM).

For the molecule `O=C(COc1ccccc1)N[C@@H]1C(=O)N2C(C(=O)OCc3ccccc3)=CC(=O)S[C@H]12` [(1)], the minimum inhibitory concentration (MIC) turned out to be 100 µg/mL (≈ 228 µM). This MIC lies about 2-fold lower than the previous one.

In general, MIC refers to the smallest concentration in the dilution series that meets the test's criterion for growth inhibition. A higher MIC goes with a need for much substance.
